# Values quoted from earlier work in patent US20230106535A1, “TECHNIQUES FOR DETERMINING CALCIMIMETIC DRUG ACTIVITY” (Fresenius Medical Care Holdings, Inc., priority 2021, published 2023).
# What was measured:
# [1] = not given; remark: listed apart in the source
# [2] = healthy subjects; plasma concentration declines tri-exponentially
# [3] = test system: iPTH, serum ionized Ca, phosphate
# corrected serum calcium = conditions: clinical studies
# PTH = conditions: n=343, Source E
# [4] = long term studies, within 12 weeks
smiles,measurement,setting,value
CC(=O)N[C@H](CSSC[C@H](N)C(=O)O)C(=O)N[C@H](C)C(=O)N[C@H](CCCNC(=N)N)C(=O)N[C@H](CCCNC(=N)N)C(=O)N[C@H](CCCNC(=N)N)C(=O)N[C@H](C)C(=O)N[C@H](CCCNC(=N)N)C(N)=O [etelcalcetide],time to steady state of etelcalcetide plasma concentration,"clinical studies, multiple 2.5 mg or 5 mg administrations after every HD session",about 4 weeks
same,biotransformation resulting in (reversible) formation of SAPC,"human, in vivo",roughly 60%
same,etelcalcetide undergoing biotransformation,"human, in vivo",approximately 90%
same,half-life,patients on intermittent HD,~50 days
same,rate of conversion from SAPC to etelcalcetide relative to conversion of etelcalcetide to SAPC,[1]; faster,roughly 16 fold
same,rate of conversion from SAPC to etelcalcetide relative to dialytic rate constant,[1]; slower,approximately 200 fold
same,etelcalcetide dose cleared by HD,"[1]; within 15 minutes, almost all cleared as intact etelcalcetide",approximately 70%
same,terminal half-life,[2],around 20 hours
same,highest changes in Ca concentration,"[3]; HD patients, after a 60 mg administration",around 15%
same,time to decline of iCa concentration,"[3]; HD patients, after administration, dose-dependent",≤ 10 h
same,time to lowering of intact PTH (iPTH),[3]; after a single dose,≤ 30 min
same,time to iCa plateau,[3]; after a single dose administration,56 h
same,iCa decline before reaching a plateau,[3]; [4],around 10%
same,phosphate decline before reaching a plateau,[3]; [4],~5%
same,time to plateau in iPTH,[3]; post single dose administration,1 h
same,time to decrease in phosphate,[3]; post-administration,about 4 hours
same,time after which iCa gradually decreases,[3]; single dose,about 18 hours
same,time phosphate remains low,[3]; single dose,about 4 days
same,time serum ionized Ca (iCa) remains stable,[3]; single dose,8 h
same,patients with at least one corrected calcium value below 8.3 mg/dl,corrected serum calcium,79%
same,patients with at least one corrected serum calcium value below 7 mg/dl,corrected serum calcium,around 7.6%
C[C@@H](NCCCc1cccc(C(F)(F)F)c1)c1cccc2ccccc12 [cinacalcet],"patients with PTH reduction >30% from baseline, clinical results",PTH,57.7%
same,"patients with PTH reduction >50% from baseline, clinical results",PTH,40.2%
